From PubChem BioAssay AID2060498 (Molecular Pharmacology Branch, DTP, NCI, 2025)

System: 171881-019-R-J1-PDC tumor spheroids, viability
Assay: Anticancer human tumor 171881-019-R-J1-PDC patient-derived invasive breast carcinoma cell line growth inhibition [GQUAD]
Conditions: spheroids with HUVEC and MSC; for IC50: curve of first compound; for viability, T/C: stronger effect = lower value
Summary of the method: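 Multi-cell-type spheroids of tumor cells with HUVEC and mesenchymal stem cells, treated with drug combinations. Concentrations descend in half-log steps from near clinical Cmax, or from 10 microM where Cmax is unknown; viability read-out.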

[1] = second compound 0.0316 µM, first compound 0.0316 µM
[2] = second compound 0.0316 µM, first compound 0.1 µM
[3] = second compound 0.0316 µM, first compound 0.316 µM
[4] = second compound 0.0316 µM, first compound 1 µM
[5] = second compound 0.0316 µM, first compound 3.16 µM
[6] = second compound 0.0316 µM, first compound 10 µM
[7] = second compound 0.1 µM, first compound 0.0316 µM
[8] = second compound 0.1 µM, first compound 0.1 µM
[9] = second compound 0.1 µM, first compound 0.316 µM
[10] = second compound 0.1 µM, first compound 1 µM
[11] = second compound 0.1 µM, first compound 3.16 µM
[12] = second compound 0.1 µM, first compound 10 µM
[13] = second compound 0.316 µM, first compound 0.0316 µM
[14] = second compound 0.316 µM, first compound 0.1 µM
[15] = second compound 0.316 µM, first compound 0.316 µM
[16] = second compound 0.316 µM, first compound 1 µM
[17] = second compound 0.316 µM, first compound 3.16 µM
[18] = second compound 0.316 µM, first compound 10 µM
[19] = second compound 1 µM, first compound 0.0316 µM
[20] = second compound 1 µM, first compound 0.1 µM
[21] = second compound 1 µM, first compound 0.316 µM
[22] = second compound 1 µM, first compound 1 µM
[23] = second compound 1 µM, first compound 3.16 µM
[24] = second compound 1 µM, first compound 10 µM
[25] = second compound 3.16 µM, first compound 0.0316 µM
[26] = second compound 3.16 µM, first compound 0.1 µM
[27] = second compound 3.16 µM, first compound 0.316 µM
[28] = second compound 3.16 µM, first compound 1 µM
[29] = second compound 3.16 µM, first compound 3.16 µM
[30] = second compound 3.16 µM, first compound 10 µM
[31] = second compound 10 µM, first compound 0.0316 µM
[32] = second compound 10 µM, first compound 0.1 µM
[33] = second compound 10 µM, first compound 0.316 µM
[34] = second compound 10 µM, first compound 1 µM
[35] = second compound 10 µM, first compound 3.16 µM
[36] = second compound 10 µM, first compound 10 µM
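Note: spheroids exposed to compounds for 7 days.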
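Throughout, for viability, T/C: 100% = DMSO vehicle control viability.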

CC(C)n1c(=O)n(C)c2cnc3cc(F)c(-c4ccc(OCCCN5CCCCC5)nc4)cc3c21 + Cc1cnc(CNC(=O)c2c(=O)c3ccc(N4CCCN(C)CC4)nc3n3c2sc2ccccc23)cn1
IC50 (second compound 0.0316 µM): 1020 nM | IC50 (second compound 0.1 µM): 1720 nM | IC50 (second compound 0.316 µM): 1860 nM | IC50 (second compound 1 µM): 3420 nM | IC50 (second compound 3.16 µM): 3710 nM | IC50 (second compound 10 µM): 3200 nM | viability, T/C [1]: 63.7% | viability, T/C [2]: 56.6% | viability, T/C [3]: 59.6% | viability, T/C [4]: 48.2% | viability, T/C [5]: 39.1% | viability, T/C [6]: 16.1% | viability, T/C [7]: 62.4% | viability, T/C [8]: 62.2% | viability, T/C [9]: 58.6% | viability, T/C [10]: 55.9% | viability, T/C [11]: 43.8% | viability, T/C [12]: 17.4% | viability, T/C [13]: 66.6% | viability, T/C [14]: 65% | viability, T/C [15]: 60.5% | viability, T/C [16]: 58.9% | viability, T/C [17]: 43.3% | viability, T/C [18]: 20.8% | viability, T/C [19]: 66.7% | viability, T/C [20]: 63.5% | viability, T/C [21]: 66.5% | viability, T/C [22]: 57.7% | viability, T/C [23]: 53.2% | viability, T/C [24]: 25.4% | viability, T/C [25]: 62.1% | viability, T/C [26]: 63% | viability, T/C [27]: 66.5% | viability, T/C [28]: 60.7% | viability, T/C [29]: 53.1% | viability, T/C [30]: 28.2% | viability, T/C [31]: 61.8% | viability, T/C [32]: 64.2% | viability, T/C [33]: 61.7% | viability, T/C [34]: 58.7% | viability, T/C [35]: 50.4% | viability, T/C [36]: 25.3%

CC1COCCN1c1cc(-c2ccnn2C)c2ccnc(-c3ccn[nH]3)c2n1 (stereo not drawn) + Cc1cnc(CNC(=O)c2c(=O)c3ccc(N4CCCN(C)CC4)nc3n3c2sc2ccccc23)cn1
IC50 (second compound 0.0316 µM): < 31.6 nM | IC50 (second compound 0.1 µM): < 31.6 nM | IC50 (second compound 0.316 µM): < 31.6 nM | IC50 (second compound 1 µM): < 31.6 nM | IC50 (second compound 3.16 µM): 36.8 nM | IC50 (second compound 10 µM): < 31.6 nM | viability, T/C [1]: 41.9% | viability, T/C [2]: 22.4% | viability, T/C [3]: 13.9% | viability, T/C [4]: 8.64% | viability, T/C [5]: 5.53% | viability, T/C [6]: 5.12% | viability, T/C [7]: 42.5% | viability, T/C [8]: 24.9% | viability, T/C [9]: 14.8% | viability, T/C [10]: 8.31% | viability, T/C [11]: 5.49% | viability, T/C [12]: 5.8% | viability, T/C [13]: 41.5% | viability, T/C [14]: 27.8% | viability, T/C [15]: 17.2% | viability, T/C [16]: 9.26% | viability, T/C [17]: 5.7% | viability, T/C [18]: 5.04% | viability, T/C [19]: 46.4% | viability, T/C [20]: 33% | viability, T/C [21]: 21.6% | viability, T/C [22]: 11.2% | viability, T/C [23]: 6.82% | viability, T/C [24]: 4.69% | viability, T/C [25]: 52.4% | viability, T/C [26]: 35.1% | viability, T/C [27]: 25.4% | viability, T/C [28]: 13.4% | viability, T/C [29]: 6.44% | viability, T/C [30]: 4.66% | viability, T/C [31]: 48.2% | viability, T/C [32]: 38.8% | viability, T/C [33]: 24.1% | viability, T/C [34]: 13.9% | viability, T/C [35]: 7.41% | viability, T/C [36]: 4.56%

CC1COCCN1c1cc(C2(O)CC3CCC(C2)O3)c2cnn(-c3ccn[nH]3)c2n1 (stereo not drawn) + Cc1cnc(CNC(=O)c2c(=O)c3ccc(N4CCCN(C)CC4)nc3n3c2sc2ccccc23)cn1
IC50 (second compound 0.0316 µM): < 31.6 nM | IC50 (second compound 0.1 µM): < 31.6 nM | IC50 (second compound 0.316 µM): < 31.6 nM | IC50 (second compound 1 µM): < 31.6 nM | IC50 (second compound 3.16 µM): < 31.6 nM | IC50 (second compound 10 µM): < 31.6 nM | viability, T/C [1]: 33.7% | viability, T/C [2]: 16.5% | viability, T/C [3]: 9.78% | viability, T/C [4]: 5.45% | viability, T/C [5]: 4.11% | viability, T/C [6]: 2.67% | viability, T/C [7]: 33.8% | viability, T/C [8]: 17.1% | viability, T/C [9]: 9.54% | viability, T/C [10]: 5.51% | viability, T/C [11]: 4.25% | viability, T/C [12]: 3.04% | viability, T/C [13]: 34.8% | viability, T/C [14]: 21.1% | viability, T/C [15]: 10.6% | viability, T/C [16]: 5.81% | viability, T/C [17]: 4.2% | viability, T/C [18]: 3.15% | viability, T/C [19]: 35.5% | viability, T/C [20]: 22.2% | viability, T/C [21]: 13.5% | viability, T/C [22]: 6.47% | viability, T/C [23]: 4.91% | viability, T/C [24]: 2.51% | viability, T/C [25]: 44.8% | viability, T/C [26]: 27.9% | viability, T/C [27]: 16.4% | viability, T/C [28]: 6.87% | viability, T/C [29]: 4.24% | viability, T/C [30]: 0.23% | viability, T/C [31]: 43.3% | viability, T/C [32]: 31.1% | viability, T/C [33]: 15.4% | viability, T/C [34]: 7.69% | viability, T/C [35]: 3.95% | viability, T/C [36]: 0.2%

O=C(c1cc(Cc2n[nH]c(=O)c3ccccc23)ccc1F)N1CCN(C(=O)C2CC2)CC1 + Cc1cnc(CNC(=O)c2c(=O)c3ccc(N4CCCN(C)CC4)nc3n3c2sc2ccccc23)cn1
IC50 (second compound 0.0316 µM): > 10000 nM | IC50 (second compound 0.1 µM): > 10000 nM | IC50 (second compound 0.316 µM): > 10000 nM | IC50 (second compound 1 µM): > 10000 nM | IC50 (second compound 3.16 µM): > 10000 nM | IC50 (second compound 10 µM): > 10000 nM | viability, T/C [1]: 97.3% | viability, T/C [2]: 93.3% | viability, T/C [3]: 87% | viability, T/C [4]: 87.1% | viability, T/C [5]: 80.9% | viability, T/C [6]: 75.1% | viability, T/C [7]: 79.9% | viability, T/C [8]: 82.7% | viability, T/C [9]: 76.3% | viability, T/C [10]: 68.4% | viability, T/C [11]: 64.1% | viability, T/C [12]: 62% | viability, T/C [13]: 70.1% | viability, T/C [14]: 69.8% | viability, T/C [15]: 71.3% | viability, T/C [16]: 65% | viability, T/C [17]: 67.8% | viability, T/C [18]: 58.2% | viability, T/C [19]: 66.6% | viability, T/C [20]: 61.5% | viability, T/C [21]: 68.9% | viability, T/C [22]: 58.6% | viability, T/C [23]: 64.1% | viability, T/C [24]: 57.8% | viability, T/C [25]: 59.4% | viability, T/C [26]: 55.4% | viability, T/C [27]: 64.6% | viability, T/C [28]: 56.5% | viability, T/C [29]: 55.3% | viability, T/C [30]: 55.7% | viability, T/C [31]: 54.3% | viability, T/C [32]: 60.4% | viability, T/C [33]: 57.9% | viability, T/C [34]: 55.5% | viability, T/C [35]: 59.3% | viability, T/C [36]: 55.4%
